# In US20140057895A1, “INDAZOLE- AND PYRROLOPYRIDINE-DERIVATIVE AND PHARMACEUTICAL USE THEREOF” (priority 2011, published 2014):
# Legend:
# human 5-HT4b receptor = target: T1, human 5-HT4b receptor (Homo sapiens, UniProt Q13639); experiment: Test Example 4: Serotonin 4 (5-HT4) receptor agonist activity assay, cAMP HTRF in CHO cells (Table 100); format: cell-based; settings: mean value; for Emax: CHO, 0.25 h, intrinsic activity, maximal activity of 5-HT defined as 100%, read-out: IA (%); for EC50: concentration showing 50% of IA
# T1 construct: expressed in transfected cells; host or cells: CHO cells (G418 selection)
# T1 sequence (Q13639 whole entry): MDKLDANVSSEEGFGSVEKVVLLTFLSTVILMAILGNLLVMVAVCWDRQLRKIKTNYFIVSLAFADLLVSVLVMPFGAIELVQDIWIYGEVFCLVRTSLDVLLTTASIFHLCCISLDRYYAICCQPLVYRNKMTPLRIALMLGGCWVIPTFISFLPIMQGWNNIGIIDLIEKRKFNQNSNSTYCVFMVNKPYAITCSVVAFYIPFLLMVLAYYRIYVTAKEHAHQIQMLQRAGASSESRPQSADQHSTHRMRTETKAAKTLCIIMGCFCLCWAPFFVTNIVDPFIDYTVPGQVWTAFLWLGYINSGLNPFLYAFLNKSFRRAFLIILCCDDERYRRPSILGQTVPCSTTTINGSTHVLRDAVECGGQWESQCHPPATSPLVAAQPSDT
# Summary of the method: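 Read-out is HTRF cAMP (time-resolved fluorescence 620/665 nm after 1 h RT with cAMP-cryptate and cAMP-d2), from recombinant CHO cells bearing human 5-HT4b treated with compound 15 min at 31° C. in Hanks/HEPES buffer pH 7.4. IA (%) scaled to peak 5-HT effect over 10^−11–10^−7 M; EC50 is concentration giving half that IA.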
# [1] = target: T2, Human 5-HT4 receptor (5-HT4b) (Homo sapiens, UniProt Q13639); experiment: Test Example 3: Human 5-HT4 receptor binding assay, membranes of CHO-K1 cells stably expressing 5-HT4b receptors (Table 99); settings: mean value of each group
# T2 construct: expressed in transfected cells; membrane preparation
# T2 sequence (Q13639 whole entry): as above
# Summary of the method: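 Radioligand displacement: [3H]-GR113808 (0.1 nM) bound to CHO-K1 5-HT4b membranes for 30 min at 37 °C in Hepes buffer (50 mM, pH 7.4). Specific binding is total minus that with 30 μM serotonin; filter-bound radioactivity counted, IC50 derived from percent inhibition.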
SMILES,Emax (human 5-HT4b receptor) [%],EC50 (human 5-HT4b receptor) [nM],IC50 [1] [nM]
"CCCc1nn(-c2noc(C3CCN(C4CCN(C(=O)CO)CC4)CC3)n2)c2c(F)cccc12 [Example 524, 1-{4-[3-(7-fluoro-3-propyl-1H-indazol-1-yl)-1,2,4-oxadiazol-5-yl]-1,4′-bipiperidin-1′-yl}-2-hydroxyethanone]",84,4.3,< 20
"CC(C)c1nn(-c2noc(C[C@@H]3CCN(C[C@@H]4CCCN4C(=O)CO)C3)n2)c2c(F)cccc12 [Example 546, 1-[(2S)-2-{[(3S)-3-({3-[7-fluoro-3-(propan-2-yl)-1H-indazol-1-yl]-1,2,4-oxadiazol-5-yl}methyl)pyrrolidin-1-yl]methyl}pyrrolidin-1-yl]-2-hydroxyethanone]",63,20.1,< 20
"CC(C)c1nn(-c2noc([C@H]3CC[C@@H](NCC4CCN(S(C)(=O)=O)CC4)CC3)n2)c2c(F)cccc12 [Example 618, cis-4-{3-[7-fluoro-3-(propan-2-yl)-1H-indazol-1-yl]-1,2,4-oxadiazol-5-yl}-N-{[1-(methylsulfonyl)piperidin-4-yl]methyl}cyclohexanamine]",32,6.2,< 20
CC(=O)N1CC[C@@H](CN2CC[C@@H](Cc3nc(-n4nc(C(C)C)c5cccc(F)c54)no3)C2)C1 [Example 515],70,8.5,< 20
"CC(C)c1nn(-c2noc(C[C@@H]3CCN(C[C@H]4CCCN4S(C)(=O)=O)C3)n2)c2c(F)cccc12 [Example 512, 7-fluoro-1-(5-{[(3S)-1-{[(2R)-1-(methylsulfonyl)pyrrolidin-2-yl]methyl}pyrrolidin-3-yl]methyl}-1,2,4-oxadiazol-3-yl)-3-(propan-2-yl)-1H-indazole]",30,4.3,< 20
"CC(C)c1nn(-c2noc(C[C@@H]3CCN(C[C@H]4CCN(S(C)(=O)=O)C4)C3)n2)c2c(F)cccc12 [Example 518, 7-fluoro-1-(5-{[(3S)-1-{[(3R)-1-(methylsulfonyl)pyrrolidin-3-yl]methyl}pyrrolidin-3-yl]methyl}-1,2,4-oxadiazol-3-yl)-3-(propan-2-yl)-1H-indazole]",59,5.5,< 20
"CC(C)c1nn(-c2noc([C@H]3CC[C@@H](NC4CCN(S(C)(=O)=O)C4)CC3)n2)c2c(F)cccc12 (relative stereo) [Example 616, N-(cis-4-{3-[7-fluoro-3-(propan-2-yl)-1H-indazol-1-yl]-1,2,4-oxadiazol-5-yl}cyclohexyl)-1-(methylsulfonyl)pyrrolidin-3-amine]",105,13,< 20
"CC(C)c1nn(-c2noc(C[C@H]3CCN(C[C@@H]4CCN(S(C)(=O)=O)C4)C3)n2)c2c(F)cccc12 [Example 504, 7-fluoro-1-(5-{[(3R)-1-{[(3S)-1-(methylsulfonyl)pyrrolidin-3-yl]methyl}pyrrolidin-3-yl]methyl}-1,2,4-oxadiazol-3-yl)-3-(propan-2-yl)-1H-indazole]",47,3.9,< 20
"CCc1nn(-c2noc(C3CCN(C[C@@H]4CCCN4C(=O)CO)CC3)n2)c2c(F)cccc12 [Example 583, 1-[(2S)-2-({4-[3-(3-ethyl-7-fluoro-1H-indazol-1-yl)-1,2,4-oxadiazol-5-yl]piperidin-1-yl}methyl)pyrrolidin-1-yl]-2-hydroxyethanone]",84,5.9,< 20
"CC(=O)N1CC[C@H](CN2CC[C@@H](Cc3nc(-n4nc(C(C)C)c5cccc(F)c54)no3)C2)C1 [Example 517, 1-[(3R)-3-{[(3S)-3-({3-[7-fluoro-3-(propan-2-yl)-1H-indazol-1-yl]-1,2,4-oxadiazol-5-yl}methyl)pyrrolidin-1-yl]methyl}pyrrolidin-1-yl]ethanone]",72,6.1,< 20
"CC(C)c1nn(-c2noc(C3CCN(C4CCN(C(=O)CO)CC4(C)C)CC3)n2)c2c(F)cccc12 (stereo not drawn) [Example 531, 1-(4-{3-[7-fluoro-3-(propan-2-yl)-1H-indazol-1-yl]-1,2,4-oxadiazol-5-yl}-3′,3′-dimethyl-1,4′-bipiperidin-1′-yl)-2-hydroxyethanone]",95,11.4,< 20
"CC(C)c1nn(-c2noc(C[C@@H]3CCN(C[C@H]4CCN(C(=O)CO)C4)C3)n2)c2c(F)cccc12 [Example 550, 1-[(3R)-3-{[(3S)-3-({3-[7-fluoro-3-(propan-2-yl)-1H-indazol-1-yl]-1,2,4-oxadiazol-5-yl}methyl)pyrrolidin-1-yl]methyl}pyrrolidin-1-yl]-2-hydroxyethanone]",85,5.1,< 20
"CC(=O)N1CC(CN2CC[C@@H](Cc3nc(-n4nc(C(C)C)c5cccc(F)c54)no3)C2)C1 [Example 513, 1-(3-{[(3S)-3-({3-[7-fluoro-3-(propan-2-yl)-1H-indazol-1-yl]-1,2,4-oxadiazol-5-yl}methyl)pyrrolidin-1-yl]methyl}azetidin-1-yl)ethanone]",81,10.2,< 20
"CCc1nn(-c2noc(C3CCN(C4(C)CCN(C(C)=O)CC4)CC3)n2)c2c(F)cccc12 [Example 491, 1-{4-[3-(3-ethyl-7-fluoro-1H-indazol-1-yl)-1,2,4-oxadiazol-5-yl]-4′-methyl-1,4′-bipiperidin-1′-yl}ethanone]",91,4.4,< 20
"CC(=O)N1CCC(N2C3CCC2CC(c2nc(-n4nc(C(C)C)c5cccc(F)c54)no2)C3)CC1 (stereo not drawn) [Example 419, 1-{4-[3-{3-[7-fluoro-3-(propan-2-yl)-1H-indazol-1-yl]-1,2,4-oxadiazol-5-yl}-8-azabicyclo[3.2.1]oct-8-yl]piperidin-1-yl}ethanone]",110,10.4,63.8

# Now those with a lower EC50 (human 5-HT4b receptor), led by results:
Emax (human 5-HT4b receptor) [%],EC50 (human 5-HT4b receptor) [nM],IC50 [1] [nM],SMILES
90,3.3,< 20,"CC(C)c1nn(-c2noc(C[C@H]3CCN(CC4CN(C(=O)CO)C4)C3)n2)c2c(F)cccc12 [Example 542, 1-(3-{[(3R)-3-({3-[7-fluoro-3-(propan-2-yl)-1H-indazol-1-yl]-1,2,4-oxadiazol-5-yl}methyl)pyrrolidin-1-yl]methyl}azetidin-1-yl)-2-hydroxyethanone]"
109,2.4,< 20,"CC(C)c1nn(-c2noc(C3CCN(C[C@@H]4CCN(S(C)(=O)=O)C4)CC3)n2)c2c(F)cccc12 [Example 585, 7-fluoro-1-[5-(1-{[(3S)-1-(methylsulfonyl)pyrrolidin-3-yl]methyl}piperidin-4-yl)-1,2,4-oxadiazol-3-yl]-3-(propan-2-yl)-1H-indazole]"
76,2.4,< 20,"CCc1nn(-c2noc(C3CCN(C4(C)CCN(C(=O)CO)CC4)CC3)n2)c2c(F)cccc12 [Example 538, 1-{4-[3-(3-ethyl-7-fluoro-1H-indazol-1-yl)-1,2,4-oxadiazol-5-yl]-4′-methyl-1,4′-bipiperidin-1′-yl}-2-hydroxyethanone]"
46,2.8,< 20,"CC(C)c1nn(-c2noc(C[C@H]3CCN(C[C@H]4CCN(S(C)(=O)=O)C4)C3)n2)c2c(F)cccc12 [Example 506, 7-fluoro-1-(5-{[(3R)-1-{[(3R)-1-(methylsulfonyl)pyrrolidin-3-yl]methyl}pyrrolidin-3-yl]methyl}-1,2,4-oxadiazol-3-yl)-3-(propan-2-yl)-1H-indazole]"
72,2.1,< 20,"CCc1nn(-c2noc(C3CCN(C4(C)CCN(C(=O)COC)CC4)CC3)n2)c2c(F)cccc12 [Example 494, 1-{4-[3-(3-ethyl-7-fluoro-1H-indazol-1-yl)-1,2,4-oxadiazol-5-yl]-4′-methyl-1,4′-bipiperidin-1′-yl}-2-methoxyethanone]"
46,2.7,< 20,"CC(C)c1nn(-c2noc(C[C@@H]3CCN(C[C@@H]4CCCN4S(C)(=O)=O)C3)n2)c2c(F)cccc12 [Example 510, 7-fluoro-1-(5-{[(3S)-1-{[(2S)-1-(methylsulfonyl)pyrrolidin-2-yl]methyl}pyrrolidin-3-yl]methyl}-1,2,4-oxadiazol-3-yl)-3-(propan-2-yl)-1H-indazole]"
101,2.8,12.6,"CC(=O)N1CCC(CN[C@H]2C[C@@H](c3nc(-n4nc(C(C)C)c5cccc(F)c54)no3)C2)CC1 [Example 590, 1-(4-{[(cis-3-{3-[7-fluoro-3-(propan-2-yl)-1H-indazol-1-yl]-1,2,4-oxadiazol-5-yl}cyclobutyl)amino]methyl]piperidin-1-yl)ethanone]"
70,2.2,< 20,"CC(C)c1nn(-c2noc(C[C@H]3CCN(C4CCN(S(C)(=O)=O)CC4)C3)n2)c2c(F)cccc12 [Example 496, 7-fluoro-1-[5-({(3R)-1-[1-(methylsulfonyl)piperidin-4-yl]pyrrolidin-3-yl}methyl)-1,2,4-oxadiazol-3-yl]-3-(propan-2-yl)-1H-indazole]"
106,2.3,< 20,"CC(C)c1nn(-c2noc([C@H]3C[C@@H](NCC4CCN(S(C)(=O)=O)CC4)C3)n2)c2c(F)cccc12 [Example 594, cis-3-{3-[7-fluoro-3-(propan-2-yl)-1H-indazol-1-yl]-1,2,4-oxadiazol-5-yl}-N-{[1-(methylsulfonyl)piperidin-4-yl]methyl}cyclobutanamine]"
